Patent US20180221487A1, “NOVEL PROTEIN TRANSFECTION COMPOSITIONS AND USES THEREOF” (Chang Gung Memorial Hospital, Linkou, priority 2017, published 2018)
“Also recorded” adds a separate entry of the source.

Tests used:
[1] = system: endometrial cancer cells; assay: Cytotoxicity of HEPES buffer concentrations (MTT and LDH assay); assay type: cell-based, human; settings: Opti-MEM and HEPES buffer 0-200 mM, 24 h
Method: (§1) MTT and LDH assay: In MTT assay, the cells were incubated for 24 h and then centrifuged at 1500 rpm for 5 min. The supernatants were discarded and attached cells were analyzed by MTT reagent (Promega Corporation, Wisconsin, US). In LDH assay, the cells were incubated for […] and then centrifuged at 1500 rpm for 5 min. The supernatants were collected and analyzed by LDH reagent (Sigma, St. Louis, Mo., USA). The cell viability (MTT assay) and cytotoxicity (LDH assay) were assayed following the manufacturer's protocol. The MTT and LDH signals were detected by ELISA Reader (Tecan Systems, Inc., San Jose, Calif., USA).
(§2) The cytotoxicity of various HEPES buffer concentrations was evaluated. Human ovarian cancer cells and endometrial cancer cells were incubated in Opti-MEM and HEPES buffer (0-200 mM) for 24 h. Cell viability and cytotoxicity were analyzed by MTT and LDH assay, respectively.

[2] = system: breast cancer cells (BRCA009); assay: Alexa Fluor 488 anti-mouse IgG transfection, immunofluorescent staining; assay type: cell-based, human; settings: after 6 hours of incubation
Method: (§3) Immunofluorescent staining procedure: After protein transfection is completed, the cells in the culture dish were washed three times with phosphate buffered saline (PBS) and fixed with 4% paraformaldehyde for 20 min. The cells were washed again with PBS, perforated with 0.1% Triton X-100 for 5 min, and blocked with 10% BSA for 30 min. For Alexa Fluor 488 anti-mouse IgGs, cells were stained with DAPI for 10 min. For B23, histone 1 or GAPDH antibody transfection, cells were stained with Alexa Fluor 488 or 546 anti-mouse IgG antibodies for 30 min and then stained with DAPI. For […]1 proteins or Flag-Rev peptides transfection, cells were stained with anti-v5 or anti-flag antibodies, respectively, and then stained with Alexa Fluor 488 anti-mouse IgG and DAPI. All images were detected by confocal microscopes (Leica, Wetzlar, Germany). The fluorescent signals were analyzed and quantified by Q-Win software (Leica, Wetzlar, Germany). FIG. 1 schematically illustrates the protein transfection procedure. Briefly, the protein of interest and a protein transfection composition, such as HEPES buffer, were mixed and incubated for about 15 min to about 30 min to form a mixture (Panel A). […] The protein transfection efficiency can be analyzed using immunofluorescent staining or flow cytometry (Panel D). […] The protein transfection efficiency was assessed by flow cytometry or confocal microscope.

[3] = system: breast cancer cells (BRCA011); assay: as above; assay type: cell-based, human; settings: after 24 hours of incubation
Method: as §3

[4] = system: human ovarian cancer cells; assay: Cytotoxicity of HEPES buffer concentrations (MTT and LDH assay); assay type: cell-based; settings: Opti-MEM and HEPES buffer 0-200 mM, 24 h
Method: as §1, §2

[5] = system: human ovarian cancer cells (MDAH2774); assay: Protein transfection, immunofluorescent staining / confocal microscopy; assay type: cell-based
Method: Immunofluorescent staining procedure: After protein transfection is completed, the cells in the culture dish were washed three times with phosphate buffered saline (PBS) and fixed with 4% paraformaldehyde for 20 min. The cells were washed again with PBS, perforated with 0.1% Triton X-100 for 5 min, and blocked with 10% BSA for 30 min. For Alexa Fluor 488 anti-mouse IgGs, cells were stained with DAPI for 10 min. For B23, histone 1 or GAPDH antibody transfection, cells were stained with Alexa Fluor 488 or 546 anti-mouse IgG antibodies for 30 min and then stained with DAPI. For rhSTIP1 proteins or Flag-Rev peptides transfection, cells were stained with anti-v5 or anti-flag antibodies, respectively, and then stained with Alexa Fluor 488 anti-mouse IgG and DAPI. All images were detected by confocal microscopes (Leica, Wetzlar, Germany). The fluorescent signals were analyzed and quantified by Q-Win software (Leica, Wetzlar, Germany).
FIG. 1 schematically illustrates the protein transfection procedure. Briefly, the protein of interest and a protein transfection composition, such as HEPES buffer, were mixed and incubated for about 15 min to about 30 min to form a mixture (Panel A). Cells to be transfected were replaced in a minimal essential medium (Panel B). The mixture in Panel A was added to the cells in Panel B and incubated at 37° C. for about 4 to about 24 hours (Panel C). The protein transfection efficiency can be analyzed using immunofluorescent staining or flow cytometry (Panel D).
An in vitro evaluation of the optimal protein transfection condition was performed. According to the steps in FIG. 1. rhSTIP1 was incubated with HEPES buffers of different concentrations (5 or 20 mM) or Opti-MEM (control) at room temperature for about 15 minutes to form the protein mixtures to transfect human ovarian cancer cells. The mixtures were added to the cell culture dish comprising Opti-MEM and incubated at 37° C. for about 4 to about 24 hours.
Different amounts of Alexa Fluor® 488 anti-mouse IgG (0, 2, 4, 8, or 16 μg) were incubated with 20 mM HEPES buffer and mixed with ovarian (MDAH2774) cancer cells in Opti-MEM.
Alexa Fluor 488 anti-mouse IgG antibodies were mixed with 20 mM HEPES to form a mixture. […] Protein transfection efficiency was assessed using confocal fluorescent microscope.
The following proteins were incubated with Opti-MEM (control group) or 20-30 mM HEPES buffer to transfect ovarian cancer cells (MDAH2774 or MOSEC) or endometrial cancer cells: Alexa Fluor 488-conjugated, anti-mouse IgG antibody (about 150 kDa), anti-B23 antibody, anti-histone 1 antibody, anti-STIP1 antibody, rhSTIP1 protein (62.6 kDa), Flag-Rev peptide (<5 kDa) and FITC-Rev peptide (<5 kDa). […] Protein transfection efficiency was assessed by staining the transfected cancer cells with Alexa Fluor 488 or 594 anti-mouse IgG antibodies (for Alexa Fluor 488-conjugated anti-mouse IgG antibody, anti-B23 antibody, anti-histone 1 antibody, anti-STIP1 antibody), v5 antibody (for rhSTIP1), or anti-Flag antibody (for Flag-Rev peptide), and fluorescent signals were analyzed with confocal microscopy.
The protein transfection efficiency of HEPES was compared to other commercial reagents, such as PULsin™, ProteoJuice™, Pro-Ject™, Xfect™, and BioPORTER®. […] The transfected ovarian cancer cells were stained with Alexa Fluor 488 anti-mouse IgG antibodies and protein transfection efficiency was assessed by confocal fluorescent microscopy.

[6] = system: colon cancer; assay: Alexa Fluor 488 anti-mouse IgG transfection, immunofluorescent staining; assay type: cell-based; settings: HEPES buffer 20 mM-40 mM
Method: (§4) Immunofluorescent staining procedure: After protein transfection is completed, the cells in the culture dish were washed three times with phosphate buffered saline (PBS) and fixed with 4% paraformaldehyde for 20 min. The cells were washed again with PBS, perforated with 0.1% Triton X-100 for 5 min, and blocked with 10% BSA for 30 min. For Alexa Fluor 488 anti-mouse IgGs, cells were stained with DAPI for 10 min. For B23, histone 1 or GAPDH antibody transfection, cells were stained with Alexa Fluor 488 or 546 anti-mouse IgG antibodies for 30 min and then stained with DAPI. For […]1 proteins or Flag-Rev peptides transfection, cells were stained with anti-v5 or anti-flag antibodies, respectively, and then stained with Alexa Fluor 488 anti-mouse IgG and DAPI. All images were detected by confocal microscopes (Leica, Wetzlar, Germany). The fluorescent signals were analyzed and quantified by Q-Win software (Leica, Wetzlar, Germany). FIG. 1 schematically illustrates the protein transfection procedure. Briefly, the protein of interest and a protein transfection composition, such as HEPES buffer, were mixed and incubated for about 15 min to about 30 min to form a mixture (Panel A). Cells to be transfected were replaced in a minimal essential medium (Panel B). The mixture in Panel A was added to the cells in Panel B and incubated at 37° C. for about 4 to about 24 hours (Panel C). The protein transfection efficiency can be analyzed using immunofluorescent staining or flow cytometry (Panel D). Alexa Fluor 488 anti-mouse IgG or […]1 were incubated with Opti-MEM (the control group) or HEPES buffer (20 mM-40 mM) to transfect the following cancer cells according to the steps in Example 1: human cervical cancer cells, human breast cancer cells (MCF7, BRCA009 or BRCA011), human endometrial cancer cells, lung adenocarcinoma cells, human pancreatic cancer cells, hepatocellular carcinoma cells, scarcoma cells, renal cell carcinoma cells, lymphoma cells, nasopharyngeal carcinoma cells, brain tumor cells, colon cancer cells, and leukemic cells. The protein transfection efficiency was assessed by flow cytometry or confocal microscope.

[7] = system: leukemia cells; assay: as above; assay type: cell-based; settings: HEPES buffer 20 mM-40 mM
Method: as §4

[8] = system: scarcoma cells; assay: as above; assay type: cell-based; settings: HEPES buffer 20 mM-40 mM
Method: as §4

[9] = system: renal cell carcinoma; assay: as above; assay type: cell-based; settings: HEPES buffer 20 mM-40 mM
Method: as §4

[10] = system: non Hodgkin's lymphoma; assay: as above; assay type: cell-based; settings: HEPES buffer 20 mM-40 mM
Method: as §4

[11] = system: nasopharyngeal carcinoma; assay: as above; assay type: cell-based; settings: HEPES buffer 20 mM-40 mM
Method: as §4

[12] = system: brain tumor; assay: as above; assay type: cell-based; settings: HEPES buffer 20 mM-40 mM
Method: as §4

[13] = system: human ovarian cancer cells; assay: HEPES-mediated protein transfection pathway with endocytic inhibitors; assay type: cell-based; settings: pretreatment 30 min: 0.2-0.4 M sucrose, 5 μg/ml filipin or 0.0125-0.25 mM amiloride; 20 mM HEPES; after 4 hours and 24 hours
Method: Immunofluorescent staining procedure: After protein transfection is completed, the cells in the culture dish were washed three times with phosphate buffered saline (PBS) and fixed with 4% paraformaldehyde for 20 min. The cells were washed again with PBS, perforated with 0.1% Triton X-100 for 5 min, and blocked with 10% BSA for 30 min. For Alexa Fluor 488 anti-mouse IgGs, cells were stained with DAPI for 10 min. For B23, histone 1 or GAPDH antibody transfection, cells were stained with Alexa Fluor 488 or 546 anti-mouse IgG antibodies for 30 min and then stained with DAPI. For […]1 proteins or Flag-Rev peptides transfection, cells were stained with anti-v5 or anti-flag antibodies, respectively, and then stained with Alexa Fluor 488 anti-mouse IgG and DAPI. All images were detected by confocal microscopes (Leica, Wetzlar, Germany). The fluorescent signals were analyzed and quantified by Q-Win software (Leica, Wetzlar, Germany). An in vitro evaluation of HEPES-mediated protein transfection pathway was performed using the following endocytic inhibitors: sucrose (a clathrin-mediated endocytic inhibitor), filipin (a caveolae-mediated endocytic inhibitor) and amiloride (a macropinocytic inhibitor). Human ovarian cancer cells were pretreated with Opti-MEM (the control group), 0.2-0.4 M sucrose, 5 μg/ml filipin or 0.0125-0.25 mM amiloride for 30 min, followed by the transfection of Alexa Fluor 488 anti-mouse IgG antibodies using 20 mM HEPES buffer according to the steps in Example 1. The IgG antibody transfection efficiency was assessed by confocal fluorescent microscopy. […] The fluorescent signals of IgG were quantified by Q-Win software, expressed as a relative ratio in FIGS. 12C and 12D (error bars indicate s.e.m. (n=3) and asterisk denotes significant difference, P<0.001). […] The HEPES mediated protein transfection is induced by at least one of the following pathways: clathrin-mediated or caveolae-mediated endocytosis, or macropinocytosis.

O=S(=O)(O)CCN1CCN(CCO)CC1 [HEPES buffer, 4-(2-hydroxyethyl)-1-piperazineethanesulfonic acid]
HEPES buffer concentration at which cell growth was inhibited [1]: 50 mM
Alexa Fluor 488 anti-mouse IgG signal using HEPES buffer compared to Opti-MEM [2]: increased
Alexa Fluor 488 anti-mouse IgG signal using HEPES buffer compared to Opti-MEM [3]: increased
HEPES buffer concentration at which cell growth was inhibited [4]: 50 mM
transfection of Alexa Fluor 488 anti-mouse IgG antibody in the cytoplasm compared to control group (Opti-MEM) ([5]; 20-30 mM HEPES buffer, confocal microscopy): increased
IgG transfection efficiency compared to commercial protein transfection reagents ([5]; anti-GAPDH antibody, HEPES buffer 20 mM vs PULSin, ProteoJuice, Pro-Ject, Xfect, BioPorter): comparable
protein transfection efficiency, second incubation time 24 hours compared to 4 hours ([5]; rhSTIP1, 5 mM HEPES buffer): improved
protein transfection efficiency as a function of HEPES concentration ([5]; rhSTIP1 incubated with HEPES about 15 min, cells in Opti-MEM 4 to 24 hours): increases with a higher HEPES concentration; also recorded: does not increase further with HEPES concentration higher than 30 to 50 mM
Alexa Fluor 488 anti-mouse IgG signal using HEPES buffer compared to Opti-MEM [6]: increased
Alexa Fluor 488 anti-mouse IgG signal using HEPES buffer compared to Opti-MEM [7]: increased
Alexa Fluor 488 anti-mouse IgG signal using HEPES buffer compared to Opti-MEM [8]: increased
Alexa Fluor 488 anti-mouse IgG signal using HEPES buffer compared to Opti-MEM [9]: increased
Alexa Fluor 488 anti-mouse IgG signal using HEPES buffer compared to Opti-MEM [10]: increased
Alexa Fluor 488 anti-mouse IgG signal using HEPES buffer compared to Opti-MEM [11]: increased
Alexa Fluor 488 anti-mouse IgG signal using HEPES buffer compared to Opti-MEM [12]: increased

N=C(N)NC(=O)c1nc(Cl)c(N)nc1N [amiloride]
effect on HEPES-mediated IgG transfection [13]: reduced

CCCCC[C@@H](O)[C@H]1C(=O)O[C@H](C)[C@@H](O)/C=C/C=C/C=C/C=C/C=C(\C)[C@@H](O)C[C@H](O)C[C@H](O)C[C@H](O)C[C@H](O)C[C@H](O)C[C@@H]1O [filipin]
effect on HEPES-mediated IgG transfection [13]: reduced

OC[C@H]1O[C@@](CO)(O[C@H]2O[C@H](CO)[C@@H](O)[C@H](O)[C@H]2O)[C@@H](O)[C@@H]1O [sucrose]
effect on HEPES-mediated IgG transfection [13]: reduced
